Holding throughout (assay type): cell-based
Holding throughout (conditions): 10.0% saccharide, 1.0% yeast extract, 1.6% xanthan gum (dextrin 0.5%, starch none), pH 6.2, candle jar, 37° C.

Test [1] concerns vaginal secretion specimen of a patient suffering from typical bacterial vaginosis. The test can be described thus: Experiment Example 2: pH of culture samples (production of acids). From the text: (§1) • (1)The preparation of the compositions: Different saccharides were used respectively to prepare the following compositions according to the methods mentioned above: glucose, fructose, galactose, mannose, maltose, sucrose, lactose, lactulose, mycose, cellobiose, melibiose, melitose, malto-oligosaccharide, isomaltooligosaccharide and fructooligosaccharide, dextrin, starch, and glycogen: • A. 5% glucose, 1.0% yeast extract, 1.6% xanthan gum, pH adjusted to 6.2; • B. 5% fructose, 1.0% yeast extract, 1.6% xanthan gum, pH adjusted to 6.2; • C. 5% galactose, 1.0% yeast extract, 1.6% xanthan gum, pH adjusted to 6.2; • D. 5% mannose, 1.0% yeast extract, 1.6% xanthan gum, pH adjusted to 6.2; • E. 10.0% maltose, 1.0% yeast extract, 1.6% xanthan gum, pH adjusted to 6.2; • F. 10.0% sucrose, 1.0% yeast extract, 1.6% xanthan gum, pH adjusted to 6.2; • G. 10.0% lactose, 1.0% yeast extract, 1.6% xanthan gum, pH adjusted to 6.2; • H. 10.0% lactulose, 1.0% yeast extract, 1.6% xanthan gum, pH adjusted to 6.2; • I. 10.0% cellobiose, 1.0% yeast extract, 1.6% xanthan gum, pH adjusted to 6.2; • J. 10.0% mycose, 1.0% yeast extract, 1.6% xanthan gum, pH adjusted to 6.2; • K. 10.0% melibiose, 1.0% yeast extract, 1.6% xanthan gum, pH adjusted to 6.2; • L. 10.0% melitose, 1.0% yeast extract, 1.6% xanthan gum, pH adjusted to 6.2; • M. 10.0% maltooligosaccharide, 1.0% yeast extract, 1.6% xanthan gum, pH adjusted to 6.2; • N. 10.0% isomaltooligosaccharide, 1.0% yeast extract, 1.6% xanthan gum, pH adjusted to 6.2; • O. 10.0% fructooligosaccharide, 1.0% yeast extract, 1.6% xanthan gum, pH adjusted to 6.2; • P. 10.0% dextrin, 1.0% yeast extract, 0.5% xanthan gum, pH adjusted to 6.2; • Q. 10.0% starch, 1.0% yeast extract, pH adjusted to 6.2; • R. 10.0% glycogen, 1.0% yeast extract, 1.6% xanthan gum, pH adjusted to 6.2. • (2)The preparation of the test tubes: The compositions prepared above were filled into test tubes, with each tube containing 5 ml, sterilized, and kept until use for experiment. • (3) Specimen suspension: Vaginal secretion was taken from one of the patients suffering from typical bacterial vagmosis with a cotton swab, then the swab was washed in 2 ml sterilized Trypcase-soy Broth immediately, and thus the specimen suspension was ready. […] Then the tubes were placed in a candle jar and cultivated at 37° C. After 24 hours and 48 hours' culture, culture samples were taken respectively from each of the tubes, then the Gram smears of the samples were observed and the pH values of culture samples were tested. […] Meanwhile the pH values in most of the composition tubes decreased to different levels. […] And maltose and sucrose exert better effect in promoting the growth of Gram-positive bacilli and the production of acids than that of the other kinds of oligosaccharides.

In test [2] the test system is Gram-positive cocci. Put plainly: Experiment Example 2: comparison of saccharides, specimen culture, Gram smear.
Excerpt: as §1

Test [3] has as its system Gram-positive bacilli. The description is as above.
Excerpt: as §1

Test [4] concerns Gram-negative bacilli. Described as above.
Excerpt: as §1

Test [5] relates to Gram-negative cocci. Described as above.
Excerpt: as §1

The results in this text go back to patent US6964949B2, “Pharmaceutical compositions for promoting the growth of gram-positive bacilli and increasing the acidity in the vagina and the use thereof” (Shanghai Jiao Da Onlly Co., Ltd., priority 2000, dated 2005).

With `OC[C@H]1O[C@H](OCC2O[C@@H](O)[C@H](O)[C@@H](O)[C@@H]2O)[C@H](O)[C@@H](O)[C@H]1O` (stereo partly drawn) [Melibiose, melibiose], in test [1], the “pH, 24 hours-culture” value is given as 6.2 and the “pH, 48 hours-culture” value was 5.8. Further, in test [2], the “Bacteria G + c (Gram-positive cocci), 24 hours-culture” value (“Bacteria G + c … 24 hours-culture” below) is “G + c, + (1-9 bacteria per field of vision under oil-immersion lens)” and the “Bacteria G + c (Gram-positive cocci), 48 hours-culture” value (shortened to “Bacteria G + c … 48 hours-culture”) is listed as “G + c, + (1-9 bacteria per field of vision under oil-immersion lens)”. In addition, in test [3], the “Bacteria G + b (Gram-positive bacilli), 24 hours-culture” value (“Bacteria G + b … 24 hours-culture” for short) is reported as “G + b, + (1-9 bacteria per field of vision under oil-immersion lens)” and the “Bacteria G + b (Gram-positive bacilli), 48 hours-culture” value (“Bacteria G + b … 48 hours-culture” below) is listed as “G + b, ++ (About 10-99 bacteria per field of vision under oil-immersion lens)”. Besides, in test [4], the “Bacteria G − b (Gram-negative bacilli), 24 hours-culture” value (shortened to “Bacteria G − b … 24 hours-culture”) is given as “G − b, ++ (About 10-99 bacteria per field of vision under oil-immersion lens)” and the “Bacteria G − b (Gram-negative bacilli), 48 hours-culture” value (“Bacteria G − b … 48 hours-culture” for short) is “G − b, ++ (About 10-99 bacteria per field of vision under oil-immersion lens)”. Besides, in test [5], the “Bacteria G − c (Gram-negative cocci), 24 hours-culture” value (“Bacteria G − c … 24 hours-culture” below) was “G − c, + (1-9 bacteria per field of vision under oil-immersion lens)” and the “Bacteria G − c (Gram-negative cocci), 48 hours-culture” value (shortened to “Bacteria G − c … 48 hours-culture”) was “G − c, − (No or less than one bacterium per field of version under oil-immersion lens)”.

In the case of dextrin, in test [1], the “pH, 24 hours-culture” value turned out to be 6.2 and the “pH, 48 hours-culture” value amounted to 5.8. Besides, in test [2], the “Bacteria G + c … 24 hours-culture” value was “G + c, + (1-9 bacteria per field of vision under oil-immersion lens)” and the “Bacteria G + c … 48 hours-culture” value was “G + c, − (No or less than one bacterium per field of version under oil-immersion lens)”. Also, in test [3], the “Bacteria G + b … 24 hours-culture” value is listed as “G + b, +++ (About 100 bacteria or more per field vision under oil-immersion lens, even uncountable)” and the “Bacteria G + b … 48 hours-culture” value is “G + b, ++ (About 10-99 bacteria per field of vision under oil-immersion lens)”. Also, in test [4], the “Bacteria G − b … 24 hours-culture” value is “G − b, ++ (About 10-99 bacteria per field of vision under oil-immersion lens)” and the “Bacteria G − b … 48 hours-culture” value is reported as “G − b, + (1-9 bacteria per field of vision under oil-immersion lens)”. Also, in test [5], the “Bacteria G − c … 24 hours-culture” value is listed as “G − c, − (No or less than one bacterium per field of version under oil-immersion lens)” and the “Bacteria G − c … 48 hours-culture” value was “G − c, − (No or less than one bacterium per field of version under oil-immersion lens)”.

With `O=C[C@H](O)[C@@H](O)[C@H](O[C@@H]1O[C@H](CO)[C@@H](O)[C@H](O)[C@H]1O)[C@H](O)CO` [Cellobiose, cellobiose], in test [1], the “pH, 24 hours-culture” value is 5.8 and the “pH, 48 hours-culture” value is 5.8. Besides, in test [2], the “Bacteria G + c … 24 hours-culture” value is listed as “G + c, + (1-9 bacteria per field of vision under oil-immersion lens)” and the “Bacteria G + c … 48 hours-culture” value is reported as “G + c, + (1-9 bacteria per field of vision under oil-immersion lens)”. In addition, in test [3], the “Bacteria G + b … 24 hours-culture” value is recorded as “G + b, ++ (About 10-99 bacteria per field of vision under oil-immersion lens)” and the “Bacteria G + b … 48 hours-culture” value is “G + b, ++ (About 10-99 bacteria per field of vision under oil-immersion lens)”. Moreover, in test [4], the “Bacteria G − b … 24 hours-culture” value is “G − b, + (1-9 bacteria per field of vision under oil-immersion lens)” and the “Bacteria G − b … 48 hours-culture” value is recorded as “G − b, + (1-9 bacteria per field of vision under oil-immersion lens)”. In addition, in test [5], the “Bacteria G − c … 24 hours-culture” value is listed as “G − c, − (No or less than one bacterium per field of version under oil-immersion lens)” and the “Bacteria G − c … 48 hours-culture” value is “G − c, − (No or less than one bacterium per field of version under oil-immersion lens)”.
